Measured values as given in PubChem BioAssay (NCI).
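Step 1: Grow cells in 96-well plates. Step 2: Expose to compound for 48 hours at 5 concentrations. Step 3: Interpolate endpoints linearly; if unreached, use highest concentration. Definition used: TGI = concentration required for complete inhibition of growth.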

How the values were obtained:
Test in all cases: growth of human tumour cells (NCI), 48 h
DMS 114 small cell lung = tested on: DMS 114 small cell lung
DMS 273 small cell lung = tested on: DMS 273 small cell lung
M19-MEL melanoma = tested on: M19-MEL melanoma
RXF-631 renal = tested on: RXF-631 renal
SNB-78 CNS = tested on: SNB-78 CNS
XF 498 CNS = tested on: XF 498 CNS
MDA-N = tested on: MDA-N

Row | Structure (SMILES) | TGI (DMS 114 small cell lung) | TGI (DMS 273 small cell lung) | TGI (M19-MEL melanoma) | TGI (RXF-631 renal) | TGI (SNB-78 CNS) | TGI (XF 498 CNS) | TGI (MDA-N)
1 | CCc1ccccc1NC(=O)CCc1nc(=S)[nH][nH]1 | > 100 µM | > 100 µM | > 100 µM | > 100 µM | > 100 µM | > 100 µM | –
2 | Cc1cccc(C(C)O)n1 (configuration not stated) | – | – | – | – | – | – | > 100 µM
3 | COc1ccc(C2(CN(C)C)COc3cc(OC)c(OC)cc3C2=O)cc1OC (configuration not stated) | 78.3 µM | – | > 100 µM | > 100 µM | > 100 µM | > 100 µM | –
4 | C[C@]12CC[C@H]3[C@@H](CCC4=CC(=O)CC[C@@H]43)[C@@H]1CC[C@@H]2OC1(O)C(=O)c2ccccc2C1=O | – | – | – | – | – | – | 35.1 µM
5 | CN1C(c2ccccc2)CC(=Nc2ccccc2)CC1c1ccccc1 (configuration not stated) | – | 22 µM | 15.7 µM | 67.6 µM | 37.2 µM | – | –
6 | CC1(C)CCSC(/C=C/c2ccccc2)=N1 | – | – | – | – | – | – | 24.8 µM
7 | COc1ncnc2c(NC3OC(CO)C(O)C3O)ncnc12 (configuration not stated) | 1.09 µM | 5.74 µM | – | 15.4 µM | 71.9 µM | 7.84 µM | 22.8 µM
8 | O=[N+]([O-])c1ccc(Cc2nc3ccccc3s2)cc1 | > 100 µM | > 100 µM | > 100 µM | – | > 100 µM | > 100 µM | –
9 | O=c1c2cc(Br)ccc2oc2ccc(Br)cc12 | – | – | – | – | – | – | > 100 µM
10 | O=C(CC(=O)Nc1ccc(Cl)cc1)NNCC(=O)Nc1nc(-c2ccccc2)cs1 | > 100 µM | > 100 µM | > 100 µM | – | > 100 µM | > 100 µM | –
11 | CCCCCCCCCCCCCCCCC(C(=O)O)C(O)(CC(=O)O)C(=O)O (configuration not stated) | – | – | – | – | – | – | > 100 µM
12 | CC1CCC2(OC1)OC1CC3C4CC=C5CC(OC6OC(CO)C(OC7OC(C)C(OC8OC(C)C(O)C(O)C8O)C(O)C7O)C(O)C6OC6OC(C)C(O)C(O)C6O)CCC5(C)C4CCC3(C)C1C2C (configuration not stated) | – | – | – | – | – | – | 1.43 µM
13 | C/C(=N\NC(N)=S)c1ccc2c(c1)OCO2 | > 100 µM | – | > 100 µM | > 100 µM | > 100 µM | > 100 µM | –
14 | CCOC(=O)C1CCC/C1=N\N=C(N)N (configuration not stated) (tested in a mixture with another compound) | – | – | – | – | – | – | > 100 µM
15 | N=C(c1ccccc1)N1CCCCC1 | > 100 µM | > 100 µM | > 100 µM | – | > 100 µM | – | –
16 | O=C1C(NCCO)=C(N2CC2)C(=O)C(NCCO)=C1N1CC1 | > 50.9 µM | > 40 µM | > 59.8 µM | – | > 100 µM | > 100 µM | > 100 µM
17 | COC(=O)c1nc(-c2ccc(Cl)c(Cl)c2)nc2ccccc12 | > 100 µM | > 100 µM | > 100 µM | > 100 µM | > 100 µM | 19.7 µM | –
18 | C/C(=N\NC(=S)N(C)C)c1ncc[nH]1 | 39.8 µM | – | > 100 µM | – | – | > 100 µM | –
19 | O=C1CCC(c2nc3ccccc3o2)C(=O)N1 (configuration not stated) | > 100 µM | > 100 µM | > 100 µM | > 100 µM | > 100 µM | – | –
